# Assay results published in ChEMBL document CHEMBL1144273, “Synthesis and SAR studies of 3-phenoxypropyl piperidine analogues as ORL1 (NOP) receptor agonists” (Bioorg Med Chem Lett, 2005).
# System: Mus musculus
# Experiment: In vivo effective dose against mouse formalin paw after intravenous administration of the compound
# Format: functional
smiles,measurement,value
COc1ccc(C)c(OC(CCN2CCC(n3c(=O)[nH]c4ccccc43)CC2)C(C)C)c1 (stereo unspecified) [ORGANON],ED50,1.07 µmol/kg
